Assay results: ChEMBL document CHEMBL1125088, “Stereospecific synthesis, assignment of absolute configuration, and biological activity of the enantiomers of 3-[[[3-[2-(7-chloroquinolin-2-yl)-(E)-ethenyl]phenyl] [[3-(dimethylamino)-3-oxopropyl]thio]methyl]thio]propionic acid, a potent and specific leukotriene D4 receptor antagonist” (J Med Chem, 1990)
pIC50: −log10 of the molar value.

Key:
[1] = target: T1, Cysteinyl leukotriene receptor 1 (Homo sapiens, UniProt Q9Y271); test: In vitro inhibitory activity against Cysteinyl leukotriene D4 receptor from human lung membrane; type: tissue-based
T1 sequence (Q9Y271 whole entry): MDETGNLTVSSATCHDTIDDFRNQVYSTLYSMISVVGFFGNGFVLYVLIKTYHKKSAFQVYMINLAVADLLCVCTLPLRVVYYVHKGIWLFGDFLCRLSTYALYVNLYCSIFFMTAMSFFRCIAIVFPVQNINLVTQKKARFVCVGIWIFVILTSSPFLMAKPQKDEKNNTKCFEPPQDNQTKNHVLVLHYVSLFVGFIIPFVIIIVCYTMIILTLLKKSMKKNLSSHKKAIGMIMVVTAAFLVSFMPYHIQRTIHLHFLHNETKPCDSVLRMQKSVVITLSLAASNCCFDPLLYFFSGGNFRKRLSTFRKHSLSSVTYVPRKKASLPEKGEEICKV

Cavia porcellus = organism: Cavia porcellus; test: Antagonist activity of LTD4-induced contractions of isolated guinea pig trachea; type: functional
Rattus norvegicus = organism: Rattus norvegicus; test: Tested for antigen-induced dyspnea in hyperactive rats; type: functional
[2] = target: T2, Cysteinyl leukotriene receptor 1 (Cavia porcellus, UniProt Q2NNR5); test: Binding affinity against Cysteinyl leukotriene D4 receptor from guinea pig lung membrane; type: tissue-based
T2 sequence (Q2NNR5 whole entry): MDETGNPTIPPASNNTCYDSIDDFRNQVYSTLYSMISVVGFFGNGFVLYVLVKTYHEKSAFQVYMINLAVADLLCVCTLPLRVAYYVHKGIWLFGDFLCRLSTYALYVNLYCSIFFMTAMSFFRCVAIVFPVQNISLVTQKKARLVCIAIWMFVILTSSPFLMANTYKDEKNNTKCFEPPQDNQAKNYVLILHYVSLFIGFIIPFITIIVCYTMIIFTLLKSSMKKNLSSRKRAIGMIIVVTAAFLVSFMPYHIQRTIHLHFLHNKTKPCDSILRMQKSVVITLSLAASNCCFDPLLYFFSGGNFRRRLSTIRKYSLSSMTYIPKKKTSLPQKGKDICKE

Structure (SMILES) | pIC50 [1] | -Log KB (Cavia porcellus) | ED50 (Rattus norvegicus) | pIC50 [2]
CN(C)C(=O)CCS[C@H](SCCC(=O)O)c1cccc(/C=C/c2ccc3ccc(Cl)cc3n2)c1 [VERLUKAST] | 8.10 | 8.7 | 0.028 mg/kg | 8.49
CN(C)C(=O)CCSC(SCCC(=O)[O-])c1cccc(/C=C/c2ccc3ccc(Cl)cc3n2)c1.[Na+] (stereo not drawn) | 8.51 | 9 | 0.097 mg/kg | 9.11
